In ChEMBL document CHEMBL1201862, “PubChem BioAssay data set” (2004):
Activity calls are given as the source filed them.

Columns and labels:
[1] = target: T1, Calpain-2 catalytic subunit (Sus scrofa, UniProt P43367); experiment: m-calpain protease blockers, concentration series – biochemical, fluorogenic peptide substrate, dose response (AID 1420); type: functional
T1 sequence (P43367 whole entry): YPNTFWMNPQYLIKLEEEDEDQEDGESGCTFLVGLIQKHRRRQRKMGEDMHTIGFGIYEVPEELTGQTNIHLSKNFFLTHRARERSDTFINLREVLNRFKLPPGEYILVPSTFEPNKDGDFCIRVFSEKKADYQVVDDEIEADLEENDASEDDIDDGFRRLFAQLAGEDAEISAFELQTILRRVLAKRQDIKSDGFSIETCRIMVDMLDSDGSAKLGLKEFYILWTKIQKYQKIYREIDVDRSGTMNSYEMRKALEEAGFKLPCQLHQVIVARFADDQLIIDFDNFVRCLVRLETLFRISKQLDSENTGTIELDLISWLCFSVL

[2] = viability of HCT116 lacking mutant beta-catenin – cell-based, human colon tumor, dose response (AID 1045); type: functional;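 further: HCT116 colon tumor cells with beta catenin knocked out; cells exposed to compound for 60 hours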
[3] = viability of PTEN-deleted HCT116 cells – cell-based, HCT116 PTEN knockout, dose response (AID 1047); type: functional;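 further: HCT116 colon tumor cells with PTEN knocked out; cells exposed to compound for 60 hours before readout; potency for loss of cell viability measured by luminescence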
[4] = NIH3T3 cell viability loss – ATP luminescence, mouse fibroblasts, counter-screen, dose response (AID 2010); type: functional, cell-based;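 further: cells exposed to compound for about 90 hours before reading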
[5] = Trypanosoma cruzi growth suppression in host cells – NIH3T3 host cells, beta-gal luminescence, confirmation (AID 2044); type: functional, cell-based;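 further: intracellular parasites grown in NIH/3T3 mouse fibroblasts as host cells; luminescent beta-galactosidase reporter signal from transgenic T. cruzi replicating inside host cells; inhibitors lower the luminescence signal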
[6] = target: T2, Rac GTPase-activating protein 1 (Homo sapiens, UniProt Q9H0H5); experiment: blockers of MgcRacGAP-driven Rac1 GTP hydrolysis – biochemical, ADP Hunter fluorescence, primary and confirmatory, confirmation (AID 624330); type: functional
T2 sequence (Q9H0H5 whole entry): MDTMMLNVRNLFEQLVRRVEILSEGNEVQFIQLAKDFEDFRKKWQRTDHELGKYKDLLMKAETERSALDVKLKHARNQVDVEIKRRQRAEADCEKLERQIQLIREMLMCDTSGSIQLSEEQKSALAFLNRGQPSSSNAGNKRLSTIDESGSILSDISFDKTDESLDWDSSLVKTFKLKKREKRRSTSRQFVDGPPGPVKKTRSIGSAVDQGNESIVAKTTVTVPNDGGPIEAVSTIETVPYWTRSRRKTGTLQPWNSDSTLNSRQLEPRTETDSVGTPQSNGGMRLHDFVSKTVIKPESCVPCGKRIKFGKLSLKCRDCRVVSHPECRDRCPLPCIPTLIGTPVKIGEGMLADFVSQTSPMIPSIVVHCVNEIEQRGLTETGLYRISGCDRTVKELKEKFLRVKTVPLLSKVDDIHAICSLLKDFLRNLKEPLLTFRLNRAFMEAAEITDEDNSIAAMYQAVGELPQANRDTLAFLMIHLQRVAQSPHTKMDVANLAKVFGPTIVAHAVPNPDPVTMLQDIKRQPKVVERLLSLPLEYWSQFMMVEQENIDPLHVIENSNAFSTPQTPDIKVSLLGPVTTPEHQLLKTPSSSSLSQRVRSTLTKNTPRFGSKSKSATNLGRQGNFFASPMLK

[7] = system: Streptococcus sp. 'group A'; experiment: Streptococcus pyogenes SK(-)GAS viability under kanamycin – luminescence, BacTiterGlo, confirmation, counter-screen for streptokinase expression inhibitor project, dose response (AID 1900); type: functional, organism-based
Streptococcus = experiment: GAS UMAA2166 growth inhibition – luminescence, BacTiterGlo, counter-screen for streptokinase expression inhibitor project, dose response (AID 1915); type: functional, organism-based;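 further: potency for reduction of bacterial viability or growth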
[8] = Luminescence Cell-Based Dose Retest to Confirm Inhibitors of Cancer Stem Cells. [Related pubchem assays (depositor defined):AID2717, AID2721]; type: functional; conditions: Homo sapiens
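Wherever AC50 is given: cells exposed to compound for roughly 70 hours or longer before luminescence read.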

Row | SMILES | IC50 [1] | IC50 [6] | further results
1 | CN(C1CCCCC1)S(=O)(=O)c1ccc(S(=O)(=O)N2CCCC2)cc1 | 10.4 µM (not active) |  | 
2 | CCc1ccc2c(c1)c1nnc(NN)nc1n2CC |  |  | EC50 [2]: 31.1 µM (active); EC50 [3]: 30.8 µM (active)
3 | OC(COc1ccc2cc(Br)ccc2c1)CN1CCCC1 (stereo not drawn) |  |  | EC50 [4]: 11.5 µM (active); EC50 [2]: 15.6 µM (active); EC50 [3]: 17 µM (active); EC50 [5]: 3.4 µM (active)
4 | Cc1ccnc(NC(=O)CCCOc2ccc(Cl)cc2C)c1 | 0.444 µM (not active) |  | 
5 | N#Cc1cc([N+](=O)[O-])ccc1NC(=O)COC(=O)C12CC3CC(CC(C3)C1)C2 | 14.4 µM (not active) |  | 
6 | Oc1ccc(C=NNc2nc3ccccc3s2)c(O)c1 |  | 88.4 µM (active) | 
7 | O=C(C1=C[C@H](c2ccc(C(F)(F)F)cc2)C[C@H](OCc2ccc(CO)cc2)O1)N1CCCCCCC1 | 14.8 µM (not active) |  | 
8 | CN(C)c1ccc(/C=N/N2CCN(Cc3ccccc3Cl)CC2)cc1 |  | 69.6 µM (active) | 
9 | Cc1ccc(C)c(OCC(O)CN2CCC(CN3C(=O)c4cccc5cccc(c45)C3=O)CC2)c1 (stereo not drawn) |  |  | EC50 [2]: 4.8 µM (active); EC50 [3]: 4.42 µM (active)
10 | COc1ccc2cc(Br)ccc2c1CC(=O)NC1CC(C)(C)NC(C)(C)C1 |  |  | EC50 [2]: 20.8 µM (active); EC50 [3]: 20.4 µM (active)
11 | CC1CCCCN1C(=O)c1cc(-c2ccc(Cl)c(Cl)c2)on1 (stereo not drawn) | 3.9 µM (not active) |  | 
12 | Cc1cccc(Oc2ccc(S(=O)(=O)N3CCCCC3)cc2N)c1 | 11.2 µM (not active) |  | 
13 | COc1cc(/C=N/NC(=O)c2ccc3c(c2)OCO3)ccc1O |  | 28.5 µM (active) | 
14 | O=[N+]([O-])C(=C1Nc2ccccc2N1)C(Cl)=C(Cl)Cl | 27.8 µM (not active) |  | 
15 | N#CC1=C(N)Oc2cc(O)ccc2C1C1CCCCC1 (stereo not drawn) |  |  | EC50 [2]: 13.2 µM (active); EC50 [3]: 12.1 µM (active)
16 | COc1ccc(NC(=O)C2CCCN(S(=O)(=O)c3cccc4cccnc34)C2)c(OC)c1 (stereo not drawn) | 4.57 µM (not active) |  | 
17 | FC(F)(F)c1cccc(N2CCC(/N=C/N3CCCCCC3)=N2)c1 |  | 56.4 µM (active) | 
18 | C/C(=N\NC(=O)COc1ccc(C(C)(C)C)cc1)c1ccccc1 | 5.74 µM (not active) |  | 
19 | CC(=O)NC(=S)Nc1ccc(-c2nc3ccc(C)cc3s2)cc1 |  |  | EC50 [2]: 112 µM (active); EC50 [3]: 50 µM (active)
20 | Oc1ccc(NCc2ccccc2OCc2ccccc2F)cc1 |  | 71.4 µM (active) | 
21 | C=CCNc1cnn(-c2ccc(C)cc2)c(=O)c1Sc1ccc(C)cc1 | > 50 µM (not active) |  | 
22 | C/C(=N\Nc1ccc([N+](=O)[O-])cc1)c1ccc(N)cc1 |  | 109 µM (active) | 
23 | COc1ccc(CN2CCN(Cc3c[nH]c4ccccc34)CC2)c(OC)c1 |  | 104 µM (active) | 
24 | O=C(COC(=O)CC1c2ccccc2CCN1S(=O)(=O)c1ccccc1)Nc1ccccc1 (stereo not drawn) | 8.09 µM (not active) |  | 
25 | COc1cc(CNc2ncc(-c3ccc(Br)cc3)n2C)cc(OC)c1O |  | 52 µM (active) | 
26 | CCCCc1nc2ccccc2c(NC(=O)CN2CCN(C)CC2)c1CCC |  | 50.3 µM (active) | 
27 | COc1ccc(Br)cc1CN1CCN(C(=O)c2ccc(F)cc2)CC1 |  | 212 µM (active) | 
28 | CS(=O)(=O)N1CCc2cc(NC(=O)c3ccc(Cl)cc3Cl)ccc21 | 13.7 µM (not active) |  | 
29 | O=[N+]([O-])c1cc(C(F)(F)F)ccc1NCCN=C(S)Nc1ccc(Cl)cc1 |  |  | EC50 [7]: 7.05 µM (active); EC50 (Streptococcus): 7.65 µM (active); AC50 [8]: 3.04 µM (active); EC50 [2]: 14.9 µM (active); EC50 [3]: 11.7 µM (active)
30 | O=c1c2ccccc2nc(CSc2nnnn2-c2ccccc2)n1-c1ccccc1 |  |  | EC50 [2]: 17.6 µM (active); EC50 [3]: 18.1 µM (active)
